Drawing on publication PMC10646112, “Mechanistic insights into glycoside 3-oxidases involved in C-glycoside metabolism in soil microorganisms” (Nature Communications, 2023), this text covers Kd and Ki for two molecules.

For assay [1], the target named is T1, PsG3Ox (Pseudarthrobacter siccitolerans, UniProt A0A024H8G7). The experiment in a line: tryptophan fluorescence quenching titration of apo-enzyme; crystal structure. It counts as biochemical. Also noted: gene ARTSIC4J27_4061; Apo-PsG3Ox.
Assay [2] addresses T1, PsG3Ox. The experiment in a line: inhibition of D-Glc oxidation, steady-state kinetics (Lineweaver-Burk, secondary plot of slopes). The format is biochemical. Also noted: gene ARTSIC4J27_4061.

T1 sequence (A0A024H8G7 1-519): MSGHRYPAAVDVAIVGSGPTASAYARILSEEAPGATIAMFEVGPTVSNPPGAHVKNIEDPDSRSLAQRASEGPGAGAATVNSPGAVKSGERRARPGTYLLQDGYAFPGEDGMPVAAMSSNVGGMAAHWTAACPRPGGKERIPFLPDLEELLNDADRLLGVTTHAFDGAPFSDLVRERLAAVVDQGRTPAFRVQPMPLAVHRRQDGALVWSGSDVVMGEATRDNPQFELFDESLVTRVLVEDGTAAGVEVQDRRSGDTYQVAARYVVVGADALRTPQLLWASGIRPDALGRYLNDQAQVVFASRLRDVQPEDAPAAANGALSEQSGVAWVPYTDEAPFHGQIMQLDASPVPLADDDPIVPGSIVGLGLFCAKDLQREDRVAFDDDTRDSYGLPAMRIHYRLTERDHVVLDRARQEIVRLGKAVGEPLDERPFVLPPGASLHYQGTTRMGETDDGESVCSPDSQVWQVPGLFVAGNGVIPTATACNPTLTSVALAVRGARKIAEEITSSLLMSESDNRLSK

Consider `Cc1cc2nc3c(=O)[nH]c(=O)nc-3n(C[C@H](O)[C@H](O)[C@H](O)COP(=O)(O)OP(=O)(O)OC[C@H]3O[C@@H](n4cnc5c(N)ncnc54)[C@H](O)[C@@H]3O)c2cc1C` [FAD], for which binding in assay [1] was characterised by a dissociation constant (Kd) of 0.2 µM.
On to `C[C@@H]1O[C@@H](OC[C@H]2O[C@@H](Oc3c(-c4ccc(O)c(O)c4)oc4cc(O)cc(O)c4c3=O)[C@H](O)[C@@H](O)[C@@H]2O)[C@H](O)[C@H](O)[C@H]1O` [rutin], for which the Ki in assay [2] was 100 µM.

The term Kd denotes the free concentration of one partner at which half of the binding sites on the other are occupied at equilibrium, for simple one-to-one binding. Read a high Kd as a looser complex. By Ki is commonly meant a measure of affinity in units of concentration, obtained from inhibition or displacement. A high value points to lower affinity.
